Results published in US12216122B2, “Compositions and methods relating to detection, inhibition, and imaging of indoleamine 2,3-dioxygenase 1 (IDO1)” (Regeneron Pharmaceuticals, Inc., priority 2019, dated 2025).
Entries after “also recorded” stand apart in the source; their conditions may differ. Like-named read-outs stand apart in the source and are kept apart here. Numbered stars: 1 amine (or outer) side, 2 acyl side, 3 side chain; on linkers, the order of the positions; unused ones are H or OH. Bridge positions count the residues as written; N and C are the ends. Square brackets hold non-standard residues; d marks the D form. Triazole bridges read from a SMILES are 1,4-linked. Ends that are not written are not given here. Peptide text beside a SMILES is read from it. * marks the point of attachment. Biotinyl(3aR,4R,6aS) = O=C1N[C@@H]2[C@@H](CS[C@@H]2CCCCC(=O)*)N1; NH(CH2CH2O)5CH2CO = O=C(COCCOCCOCCOCCOCCN[*:1])[*:2]; dTrp(1-Me) = Cn1cc(C[C@@H](N)C(=O)O)c2ccccc21; X1 = O=C(CSc1nonc1/C(=N/O)Nc1ccc(F)c(Br)c1)*; Lys(N3) = [N-]=[N+]=NCCCC[C@H](N)C(=O)O; dPhe(4-F) = N[C@H](Cc1ccc(F)cc1)C(=O)O; dNMeV = CN[C@@H](C(=O)O)C(C)C; AEEEA = NCCOCCOCCOCC(=O)O; Pra = C#CC[C@H](N)C(=O)O; βAla = NCCC(=O)O

Key:
[1] = Percent organic elution in reverse-phase HPLC (C18) as lipophilicity readout; type: physicochemical; conditions: for % MeCN: Table 16
Source text: The predicted increase in lipophilicity for wyvay (SEQ ID NO:2) was experimentally confirmed by the percent organic (% B) elution during reverse-phase HPLC (RP-HPLC) using a C18 column where solvents A=water+0.1% TFA and B=acetonitrile+0.1% TFA.

[2] = molecular target: murine IDO1 protein (Mus musculus, UniProt P28776); assay: ELISA against murine IDO1 protein (species cross-reactivity); type: binding; conditions: Table 10; read-out: Mouse IDO EC50
Sequence of murine IDO1 protein (P28776 whole entry): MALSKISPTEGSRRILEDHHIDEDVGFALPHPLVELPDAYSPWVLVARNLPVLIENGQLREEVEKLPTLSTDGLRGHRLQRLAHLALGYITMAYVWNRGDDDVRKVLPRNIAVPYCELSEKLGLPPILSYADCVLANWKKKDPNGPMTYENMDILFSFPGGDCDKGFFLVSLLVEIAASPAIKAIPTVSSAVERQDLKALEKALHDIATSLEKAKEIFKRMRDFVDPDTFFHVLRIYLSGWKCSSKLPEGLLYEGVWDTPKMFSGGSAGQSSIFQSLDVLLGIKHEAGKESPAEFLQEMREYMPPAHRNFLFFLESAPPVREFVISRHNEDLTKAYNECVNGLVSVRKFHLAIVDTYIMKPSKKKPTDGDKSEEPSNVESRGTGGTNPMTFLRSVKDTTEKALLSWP
Description: (§1) Protocol: A black 96-well NEUTRAVIDIN® Coated High Binding Capacity plate (15510, Pierce) was coated with 2 μM biotinylated macrocyclic peptide ligand in TBS (25 mM Tris-HCl, 150 mM NaCl, pH 7.6) for 2 h at room temperature. The plate was aspirated and then washed with Wash Buffer (0.05% (v/v) TWEEN® 20 in PBS, 6×). His-tagged IDO1 human recombinant protein (71182, BPS Biosciences) was serially diluted in Wash Buffer (from 200 to 0 nM) and incubated in the designated microwells for 1 h at room temperature. Microwells were aspirated and subsequently washed with Wash Buffer (11×). To detect the bound IDO1 protein, Alkaline Phosphatase (AP)-conjugated Anti-6×HIS TAG® antibody [HIS-1] (ab49746, Abcam) was prepared at 1:10,000 dilution and added to the microwells for 1 h at room temperature. The plate was aspirated and washed with Wash Buffer (5×). ATTOPHOS® AP Fluorescent Substrate System (S1000, Promega) was employed to develop the microwells. Using an excitation wavelength of 430 nm, fluorescent emission at 535 nm was recorded by Beckman Coulter DTX880 photometer. Titration curves were fit using a four-parameter regression curve fitting program to determine EC50 values.
To test for cross-reactivity with murine IDO1, the human IDO1 targeted macrocyclic peptide ligands were assayed against the murine IDO1 protein by ELISA.

[3] = molecular target: T1, His-tagged IDO1 human recombinant protein (Homo sapiens, UniProt P14902); assay: IDO1 ELISA (Affinity Assay): sandwich ELISA, biotinylated ligand immobilized on NEUTRAVIDIN plate; type: binding; conditions: for Binding to human IDO1 by ELISA, in words: alanine scan, 3-mer/4-mer and substituted variants compared with parent macrocycle
T1 construct: purchased BPS Biosciences 71182
T1 sequence (P14902 whole entry): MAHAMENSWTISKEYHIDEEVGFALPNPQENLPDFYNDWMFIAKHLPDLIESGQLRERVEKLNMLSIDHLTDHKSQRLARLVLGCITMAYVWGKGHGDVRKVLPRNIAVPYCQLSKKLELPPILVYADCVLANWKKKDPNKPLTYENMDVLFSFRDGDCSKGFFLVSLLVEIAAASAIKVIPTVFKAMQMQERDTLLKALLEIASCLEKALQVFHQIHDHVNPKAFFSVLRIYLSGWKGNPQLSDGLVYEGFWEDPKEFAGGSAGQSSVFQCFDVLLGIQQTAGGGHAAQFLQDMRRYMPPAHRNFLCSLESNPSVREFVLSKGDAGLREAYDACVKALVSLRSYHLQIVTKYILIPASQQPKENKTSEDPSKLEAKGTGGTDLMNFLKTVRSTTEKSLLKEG
Description: as §1
For these assays, a dilution series of His-tagged IDO1 human recombinant protein was captured using the macrocyclic peptide ligands immobilized on a NEUTRAVIDIN®-coated plate. […] The sequences of the peptide ligands are listed in Table 1, where D-amino acids are denoted in lowercase, Me-Trp=1-methyl-L-tryptophan, and F-Phe=4-fluoro-L-phenylalanine. Chemical structures are shown below Table 1.
The D-alanine substituted, biotin-PEG3-modified macrocycles were tested in the IDO1 ELISA (Affinity assay). For these assays, a dilution series of His-tagged IDO1 human recombinant protein was captured using macrocycles immobilized on a NEUTRAVIDIN®-coated plate.

[4] = tested on: HeLa cells; assay: Cellular internalization of fluorescent IDO1 ligands (flow cytometry); type: cell-based; conditions: for Internalization of fluorescently labeled peptide, in words: Cy5 or FITC label, flow cytometry
Description: Internalization of fluorescently labeled peptides (using Cy5 or FITC) was measured by concentration dependent flow cytometry of unstimulated HeLa cells incubated for one hour with the peptide. […] Internalization was also testing using a cellular inhibition assay, which occurs over 48 hours (rather than the one hour for the flow cytometry assay). Internalized FITC-wyvay (SEQ ID NO:2) at 48 hours was compared to one hour in both unstimulated and stimulated HeLa cells (Table 13). Cell penetration of FITC-wyvay (SEQ ID NO:2) increases with time; more internalized FITC-wyvay (SEQ ID NO:2) can be detected at 48 hours compared to one hour. After one hour, no difference in intracellular staining of FITC-wyvay (SEQ ID NO:2) is observed in unstimulated versus stimulated cells. At 48 hours, there is a slight increase in intracellular FITC-wyvay (SEQ ID NO:2) in stimulated compared to unstimulated cells.
Protocol: HeLa cells were cultured to confluence (˜500,000 cells) in 6-well plates in cell culture medium (DMEM+10% Fetal Bovine Serum (FBS)+1% Penicillin/Streptomycin) or in cell culture medium containing 100 ng/mL IFNγ to stimulate IDO1 expression. The cells were treated with 2 μM or 8 μM macrocyclic IDO1 ligand labeled with either Cy5 or FITC for either 1 hour, 24 hours, or 48 hours as indicated. After treatment, the ligands were aspirated and the cells were washed twice with 1× Phosphate Buffered Saline (PBS). The cells were then harvested by treatment with 0.05% Trypsin-1×EDTA for 5 min at 37° C. Trypsin was quenched by the addition of PBS+2% FBS. The cells in suspension were washed twice in PBS+2% FBS, then resuspended in 500 μL PBS+2% FBS and analyzed for Cy5 or FITC fluorescence using a BD LSR Fortessa X-20 flow cytometer or/and ImageStream X Mark II imaging flow cytometer. Flow Cytometry Standard (fcs) data files were analyzed using FlowJo Software version 10.

[5] = 2 μM biotinylated macrocycle immobilized, human IDO1 titrated 200 to 0 nM, read-out: EC50, sandwich ELISA for human IDO1 protein against biotin-PEG3-modified macrocycle
[6] = Table 10, read-out: Human IDO EC50
[7] = binding analysis of VHL-linked Epitope 2 ligand, read-out: EC50

CC(C)[C@H](NC(=O)CCNC(=O)CSc1nonc1/C(=N/O)Nc1ccc(F)c(Br)c1)C(=O)N[C@H](C(=O)N[C@H](C(=O)N[C@H]1Cc2cn(nn2)CCCC[C@@H](C(N)=O)NC(=O)[C@@H](Cc2ccc(O)cc2)NC(=O)[C@@H](C)NC(=O)[C@@H](C(C)C)NC(=O)[C@@H](Cc2ccc(O)cc2)NC(=O)[C@@H](Cc2c[nH]c3ccccc23)NC1=O)C(C)C)C(C)C [Inh-BA-(Val)3-wyvay] ({X1-βAla}-VVV[Pra][dW][dY][dV][dA][dY][Lys(N3)]-NH2; triazole 4-10)
% MeCN [1]: 45.12%

CC(C)[C@H]1NC(=O)[C@@H](Cc2ccc(O)cc2)NC(=O)[C@@H](Cc2c[nH]c3ccccc23)NC(=O)[C@@H](NC(=O)COCCOCCOCCOCCOCCNC(=O)CCNC(=O)CSc2nonc2/C(=N/O)Nc2ccc(F)c(Br)c2)Cc2cn(nn2)CCCC[C@@H](C(N)=O)NC(=O)[C@@H](Cc2ccc(O)cc2)NC(=O)[C@@H](C)NC1=O [Inh-BA-PEG5-wyvay] ({X1-βAla}-[NH(CH2CH2O)5CH2CO][Pra][dW][dY][dV][dA][dY][Lys(N3)]-NH2; triazole 2-8; N-terminus and C-terminus assumed)
% MeCN [1]: 46.90%

CC(C)[C@H]1NC(=O)[C@@H](Cc2ccc(O)cc2)NC(=O)[C@@H](Cc2c[nH]c3ccccc23)NC(=O)[C@@H](NC(=O)CNC(=O)CNC(=O)CNC(=O)CNC(=O)CNC(=O)CNC(=O)CNC(=O)CSc2nonc2/C(=N/O)Nc2ccc(F)c(Br)c2)Cc2cn(nn2)CCCC[C@@H](C(N)=O)NC(=O)[C@@H](Cc2ccc(O)cc2)NC(=O)[C@@H](C)NC1=O [Inh-Gly7-wyvay] (X1-GGGGGGG[Pra][dW][dY][dV][dA][dY][Lys(N3)]-NH2; triazole 8-14)
% MeCN [1]: 43.72%

Cn1cc(C[C@H]2NC(=O)[C@@H](Cc3ccccc3)NC(=O)[C@@H](CCCNC(=N)N)NC(=O)[C@@H](Cc3ccccc3)NC(=O)[C@@H](NC(=O)COCCOCCOCCNC(=O)CCCC[C@H]3SC[C@H]4NC(=O)N[C@H]43)Cc3cn(nn3)CCCC[C@@H](C(N)=O)NC(=O)[C@@H](CO)NC2=O)c2ccccc21 [frf(Me-Trp)s, biotin-PEG3-Cy(frf(Me-Trp)s)] ({Biotinyl(3aR,4R,6aS)-AEEEA}-[Pra][dF][dR][dF][dTrp(1-Me)][dS][Lys(N3)]-NH2; triazole 1-7)
EC50 [2]: 36 ± 16 nM
EC50 [3, 5]: 20 nM
EC50 ([3]; Example 9, read-out: Binding affinity (EC50) of prioritized Epitope 1 hits): 20 nM
EC50 [3, 6]: 18 ± 2 nM

CC(C)C[C@H]1NC(=O)[C@@H](CC(N)=O)NC(=O)[C@@H](NC(=O)COCCOCCOCCNC(=O)CCCC[C@H]2SC[C@H]3NC(=O)N[C@H]32)Cc2cn(nn2)CCCC[C@@H](C(N)=O)NC(=O)[C@@H](Cc2ccc(F)cc2)NC(=O)[C@@H](Cc2cn(C)c3ccccc23)NC(=O)[C@@H](Cc2ccccc2)NC1=O [nlf(Me-Trp)(F-Phe), biotin-PEG3-Cy(nlf(Me-Trp)(F-Phe))] ({Biotinyl(3aR,4R,6aS)-AEEEA}-[Pra][dN][dL][dF][dTrp(1-Me)][dPhe(4-F)][Lys(N3)]-NH2; triazole 1-7)
EC50 [2]: 89 ± 26 nM
EC50 [3, 5]: 20 nM
EC50 [3, 6]: 19 ± 1 nM
EC50 [3, 7]: 44 nM

CC(C)C[C@H]1NC(=O)[C@@H](CC(N)=O)NC(=O)[C@@H](NC(=O)COCCOCCOCCNC(=O)CCCC[C@H]2SC[C@H]3NC(=O)N[C@H]32)Cc2cn(nn2)CCCC[C@@H](C(N)=O)NC(=O)[C@@H](CCCNC(=N)N)NC(=O)[C@@H](Cc2cn(C)c3ccccc23)NC(=O)[C@@H](Cc2c[nH]c3ccccc23)NC1=O [nlw(Me-Trp)r, biotin-PEG3-Cy(nlw(Me-Trp)r)] ({Biotinyl(3aR,4R,6aS)-AEEEA}-[Pra][dN][dL][dW][dTrp(1-Me)][dR][Lys(N3)]-NH2; triazole 1-7)
EC50 [2]: 48 nM
EC50 [3, 5]: 43 nM
EC50 [3, 6]: 51 ± 17 nM

NC(=O)[C@@H]1CCCCn2cc(nn2)C[C@H](NC(=O)COCCOCCOCCNC(=O)CCCC[C@H]2SC[C@H]3NC(=O)N[C@H]32)C(=O)N[C@H](CO)C(=O)N2CCC[C@@H]2C(=O)N[C@H](Cc2c[nH]c3ccccc23)C(=O)N[C@H](Cc2c[nH]c3ccccc23)C(=O)N[C@H](Cc2ccc(F)cc2)C(=O)N1 [spww(F-Phe), biotin-PEG3-Cy(spww(F-Phe))] ({Biotinyl(3aR,4R,6aS)-AEEEA}-[Pra][dS][dP][dW][dW][dPhe(4-F)][Lys(N3)]-NH2; triazole 1-7)
EC50 [2]: 44 nM
EC50 [3, 5]: 65 nM
EC50 [3, 6]: 85 ± 18 nM

N=C(N)NCCC[C@H]1NC(=O)[C@@H](Cc2ccc(O)cc2)NC(=O)[C@@H](Cc2c[nH]c3ccccc23)NC(=O)[C@@H](NC(=O)COCCOCCOCCNC(=O)CCCC[C@H]2SC[C@H]3NC(=O)N[C@H]32)Cc2cn(nn2)CCCC[C@@H](C(N)=O)NC(=O)[C@@H](Cc2ccc(O)cc2)NC1=O [wyry, Biotin-PEG3-Cy(wyry)] ({Biotinyl(3aR,4R,6aS)-AEEEA}-[Pra][dW][dY][dR][dY][Lys(N3)]-NH2; triazole 1-6)
Binding to human IDO1 by ELISA, in words [3]: best affinity among the 4-mer macrocycles; also recorded: superior binding affinity
Internalization of fluorescently labeled peptide, in words [4]: Concentration dependent internalization

CC(C)[C@H]1NC(=O)[C@@H](Cc2ccc(O)cc2)NC(=O)[C@@H](Cc2c[nH]c3ccccc23)NC(=O)[C@@H](N)Cc2cn(nn2)CCCC[C@@H](C(N)=O)NC(=O)[C@@H](Cc2ccc(O)cc2)NC(=O)[C@@H](C)NC1=O [wyvay] (H-[Pra][dW][dY][dV][dA][dY][Lys(N3)]-NH2; triazole 1-7)
EC50 ([3]; Table 12, read-out: EC50): 45 nM
Binding to human IDO1 by ELISA, in words [3]: modest loss in binding affinity
EC50 [3, 7]: 45 nM
Internalization of fluorescently labeled peptide, in words [4]: dose response cellular uptake; also recorded: Concentration dependent internalization
HPLC % B ([1]; Table 12, C18, A=water+0.1% TFA, B=acetonitrile+0.1% TFA): 33.4%

FITC-wyvay: FITC labeled wyvay macrocycle ([dW][dY][dV][dA][dY]; triazole (positions not given here); also: FITC label, site not given here, macrocycle by click between N-terminal Pra and C-terminal Az4, not in chain)
MFIR ([4]; stimulated HeLa cells, 1 hour): 2.11
MFIR ([4]; stimulated HeLa cells, 48 hours): 5.27
MFIR ([4]; unstimulated HeLa cells, 1 hour): 2.27
MFIR ([4]; unstimulated HeLa cells, 48 hours): 4.91

wy(N-Me-v)ay: wyvay peptide ligand with N-methylated valine (third N—H) ([Pra][dW][dY][dNMeV][dA][dY]; triazole N-C; not fully specified (C-terminus); printed as wy(N-Me-v)ay)
Internalization of fluorescently labeled peptide, in words [4]: much higher than wyvay
